# “And” between values parts separate entries of the source, which are not always exact repeats. Equal values may be shown once. Where a name gives a salt, the structure may show the parent alone.
row,SMILES,melting point
1,"CCn1c(N)c(C(=O)NC)c(=O)c2ccc(-c3ccc(CC(=O)NCc4ccncc4)cc3)nc21 (as salt: HCl) [compound 7, 2-amino-1-ethyl-N-methyl-4-oxo-7-(4-{2-oxo-2-[(pyrid-4-ylmethyl)amino]-ethyl}phenyl)-1,4-dihydro-1,8-naphthyridine-3-carboxamide]",230 °C
2,"CCN1CCC[C@@H]1CNC(=O)Cc1ccc(-c2ccc3c(=O)c(C(=O)NC)c(N)n(CC)c3n2)c(F)c1 [compound 56, 2-amino-1-ethyl-7-{4-[2-({[(2R)-1-ethylpyrrolidin-2-yl]methyl}amino)-2-oxoethyl]-2-fluorophenyl}-N-methyl-4-oxo-1,4-dihydro-1,8-naphthyridine-3-carboxamide]",253 °C
3,"CCn1c(N)c(C(=O)NC)c(=O)c2ccc(-c3ccc(CC(=O)NC(C)C)cc3)nc21 [compound 11, 2-amino-1-ethyl-N-methyl-7-(4-{2-[(1-methylethyl)amino]-2-oxoethyl}-phenyl)-4-oxo-1,4-dihydro-1,8-naphthyridine-3-carboxamide]",315 °C
4,CCN1CCCC1CNC(=O)Cc1ccc(-c2ccc3c(=O)c(C(=O)NC)c(N)n(CC4CC4)c3n2)cc1 (centres unmarked),260 °C
5,CNC(=O)c1c(N)n(CCCOC)c2nc(-c3ccc(CC(=O)Nc4ccccn4)cc3)ccc2c1=O (as salt: HCl),230 °C
6,"CCn1c(N)c(C(=O)NC)c(=O)c2ccc(-c3ccc(CC(=O)Nc4cnccn4)cc3)nc21 [compound 13, 2-amino-1-ethyl-N-methyl-4-oxo-7-{4-[2-oxo-2-(pyrazin-2-ylamino)ethyl]-phenyl}-1,4-dihydro-1,8-naphthyridine-3-carboxamide]",290 °C
7,"CCn1c(N)c(C(=O)NC)c(=O)c2ccc(-c3ccc(CC(=O)NC[C@H]4CCCN4CC(F)F)cn3)nc21 (as salt: HCl) [compound 34, 2-amino-7-{5-[2-({[(2R)-1-(2,2-difluoroethyl)pyrrolidin-2-yl]methyl}amino)-2-oxoethyl]pyrid-2-yl}-1-ethyl-N-methyl-4-oxo-1,4-dihydro-1,8-naphthyridine-3-carboxamide]",260 °C
8,"CCn1c(N)c(C(=O)NC)c(=O)c2ccc(-c3ccc(CCNc4ccccn4)cc3)nc21 (as salt: HCl) [compound 64, 2-amino-1-ethyl-N-methyl-4-oxo-7-{4-[2-(pyrid-2-ylamino)ethyl]phenyl}-1,4-dihydro-1,8-naphthyridine-3-carboxamide]",242 °C
9,"CCn1c(N)c(C(=O)NC)c(=O)c2ccc(-c3ccc(CC(=O)Nc4cccnc4)cc3)nc21 (as salt: HCl) [compound 3, 2-amino-1-ethyl-N-methyl-4-oxo-7-{4-[2-oxo-2-(pyrid-3-ylamino)ethyl]-phenyl}-1,4-dihydro-1,8-naphthyridine-3-carboxamide]",270 °C
10,"CCN1CCCC1CNC(=O)Cc1csc(-c2ccc3c(=O)c(C(=O)NC)c(N)n(CC)c3n2)n1 (centres unmarked) (as salt: HCl) [compound 43, 2-amino-1-ethyl-7-[4-(2-{[(1-ethylpyrrolidin-2-yl)methyl]amino}-2-oxoethyl)-1,3-thiazol-2-yl]-N-methyl-4-oxo-1,4-dihydro-1,8-naphthyridine-3-carboxamide]",228 °C
11,"CCN1CCOCC1CNC(=O)C(C)c1ccc(-c2ccc3c(=O)c(C(=O)NC)c(N)n(CC)c3n2)cc1 (centres unmarked) (as salt: HCl) [compound 25, 2-amino-1-ethyl-7-[4-(2-{[(4-ethylmorpholin-3-yl)methyl]amino}-1-methyl-2-oxoethyl)phenyl]-N-methyl-4-oxo-1,4-dihydro-1,8-naphthyridine-3-carboxamide]",190 °C
12,"CCN1CCOCC1CNC(=O)Cc1ccc(-c2ccc3c(=O)c(C(=O)NC)c(N)n(CC)c3n2)cc1 (centres unmarked) (as salt: HCl) [compound 22, 2-amino-1-ethyl-7-[4-(2-{[(4-ethylmorpholin-3-yl)methyl]amino}-2-oxoethyl)phenyl]-N-methyl-4-oxo-1,4-dihydro-1,8-naphthyridine-3-carboxamide]",188 to 190 °C and 190 °C
13,"CCN1CCCC1CNC(=O)Cc1ccc(-c2ccc3c(=O)c(C(=O)NC)c(N)n(CC)c3n2)cc1F (centres unmarked) [compound 58, 2-amino-7-[3-fluoro-4-(2-{[(1-ethylpyrrolidin-2-yl)methyl]amino}-2-oxoethyl)phenyl]-1-ethyl-N-methyl-4-oxo-1,4-dihydro-1,8-naphthyridine-3-carboxamide]",275 °C
14,"CCN1CCCC1CNC(=O)Cc1ccc(-c2ccc3c(=O)c(C(=O)NC)c(N)n(CC)c3n2)c(C)c1 (centres unmarked) [compound 61, 2-amino-1-ethyl-7-[4-(2-{[(1-ethylpyrrolidin-2-yl)methyl]amino}-2-oxoethyl)-2-methylphenyl]-N-methyl-4-oxo-1,4-dihydro-1,8-naphthyridine-3-carboxamide]",178 °C
15,"CCn1c(N)c(C(=O)NC)c(=O)c2ccc(-c3ccc(CC(=O)NC[C@H]4CCCN4CC(F)F)cc3)nc21 (as salt: HCl) [compound 31, 2-amino-7-{4-[2-({[(2R)-1-(2,2-difluoroethyl)pyrrolidin-2-yl]methyl}amino)-2-oxoethyl]phenyl}-1-ethyl-N-methyl-4-oxo-1,4-dihydro-1,8-naphthyridine-3-carboxamide]",214 to 228 °C
16,CCn1c(N)c(C(=O)NC)c(=O)c2ccc(-c3ccc(CC(=O)NC4CCCC4)cc3)nc21,300 °C
17,"CCN1C[C@H](F)C[C@H]1CNC(=O)Cc1ccc(-c2ccc3c(=O)c(C(=O)NC)c(N)n(CC)c3n2)cc1 (as salt: HCl) [compound 26, 2-amino-1-ethyl-7-{4-[2-({[(2S,4R)-1-ethyl-4-fluoropyrrolidin-2-yl]methyl}-amino)-2-oxoethyl]phenyl}-N-methyl-4-oxo-1,4-dihydro-1,8-naphthyridine-3-carboxamide]",170 °C
18,"CCn1c(N)c(C(=O)NC)c(=O)c2ccc(-c3ccc(CC(=O)Nc4ccccn4)cc3)nc21 (as salt: HCl) [compound 4, 2-amino-1-ethyl-N-methyl-4-oxo-7-{4-[2-oxo-2-(pyrid-2-ylamino)ethyl]-phenyl}-1,4-dihydro-1,8-naphthyridine-3-carboxamide]",258 °C
19,"CCn1c(N)c(C(=O)NC)c(=O)c2ccc(-c3ccc(CC(=O)NC4CC4)cc3)nc21 [compound 10, 2-amino-7-{4-[2-(cyclopropylamino)-2-oxoethyl]phenyl}-1-ethyl-N-methyl-4-oxo-1,4-dihydro-1,8-naphthyridine-3-carboxamide]",> 260 °C
20,"CCN1CCCC1CNC(=O)Cc1ccc(-c2ccc3c(=O)c(C(=O)NC)c(N)n(CC(F)(F)F)c3n2)cc1 (centres unmarked) [compound 49, 2-amino-7-[4-(2-{[(1-ethylpyrrolidin-2-yl)methyl]amino}-2-oxoethyl)-phenyl]-N-methyl-4-oxo-1-(2,2,2-trifluoroethyl)-1,4-dihydro-1,8-naphthyridine-3-carboxamide]",300 °C
21,"CCn1c(N)c(C(=O)NC)c(=O)c2ccc(-c3ccc(CC(=O)NCc4cncn4C)cc3)nc21 (as salt: HCl) [compound 36, 2-amino-1-ethyl-N-methyl-7-[4-(2-{[(1-methyl-1H-imidazol-5-yl)methyl]amino}-2-oxoethyl)phenyl]-4-oxo-1,4-dihydro-1,8-naphthyridine-3-carboxamide]",270 °C
22,"CCN1CCC[C@H]1CNC(=O)Cc1ccc(-c2ccc3c(=O)c(C(=O)NC)c(N)n(CC)c3n2)cc1 [compound 15, 2-amino-1-ethyl-7-{4-[2-({[(2S)-1-ethylpyrrolidin-2-yl]methyl}amino)-2-oxoethyl]phenyl}-N-methyl-4-oxo-1,4-dihydro-1,8-naphthyridine-3-carboxamide]",262 °C
23,"CCN1CC(F)(F)C[C@H]1CNC(=O)Cc1ccc(-c2ccc3c(=O)c(C(=O)NC)c(N)n(CC)c3n2)cc1 (as salt: HCl) [compound 24, 2-amino-1-ethyl-7-{4-[2-({[(2S)-1-ethyl-4,4-difluoropyrrolidin-2-yl]methyl}-amino)-2-oxoethyl]phenyl}-N-methyl-4-oxo-1,4-dihydro-1,8-naphthyridine-3-carboxamide]",266 °C
24,"CCn1c(N)c(C(=O)NC)c(=O)c2ccc(-c3ccc(CC(=O)Nc4ccccn4)nc3)nc21 [compound 21, 2-amino-1-ethyl-N-methyl-4-oxo-7-{6-[2-oxo-2-(pyrid-2-ylamino)-ethyl]pyrid-3-yl}-1,4-dihydro-1,8-naphthyridine-3-carboxamide]",266 °C
25,"CCn1c(N)c(C(=O)NC)c(=O)c2ccc(-c3cccc(CC(=O)Nc4ccccn4)c3)nc21 (as salt: HCl) [compound 63, 2-amino-1-ethyl-N-methyl-4-oxo-7-{3-[2-oxo-2-(pyrid-2-ylamino)ethyl]-phenyl}-1,4-dihydro-1,8-naphthyridine-3-carboxamide]",176 °C
26,"CCn1c(N)c(C(=O)NC)c(=O)c2ccc(-c3ccc(C(C)C(=O)Nc4ccccn4)cc3)nc21 (centres unmarked) (as salt: HCl) [compound 20, 2-amino-1-ethyl-N-methyl-7-{4-[1-methyl-2-oxo-2-(pyrid-2-ylamino)ethyl]-phenyl}-4-oxo-1,4-dihydro-1,8-naphthyridine-3-carboxamide]",188 °C
27,"CCN1CCCC1CNC(=O)Cc1cccc(-c2ccc3c(=O)c(C(=O)NC)c(N)n(CC)c3n2)c1 (centres unmarked) (as salt: HCl) [compound 62, 2-amino-1-ethyl-7-[3-(2-{[(1-ethylpyrrolidin-2-yl)methyl]amino}-2-oxoethyl)phenyl]-N-methyl-4-oxo-1,4-dihydro-1,8-naphthyridine-3-carboxamide]",213 °C
28,"CCn1c(N)c(C(=O)NC)c(=O)c2ccc(-c3ccc(CC(=O)NCC4COCCN4C4CC4)cc3)nc21 (centres unmarked) (as salt: HCl) [compound 33, 2-amino-7-[4-(2-{[(4-cyclopropylmorpholin-3-yl)methyl]amino}-2-oxoethyl)phenyl]-1-ethyl-N-methyl-4-oxo-1,4-dihydro-1,8-naphthyridine-3-carboxamide]",250 °C
29,"CCn1c(N)c(C(=O)NC)c(=O)c2ccc(-c3ccc(CC(=O)NCCc4cccn4C)cc3)nc21 [compound 42, 2-amino-1-ethyl-N-methyl-7-[4-(2-{[2-(1-methyl-1H-pyrrol-2-yl)-ethyl]amino}-2-oxoethyl)phenyl]-4-oxo-1,4-dihydro-1,8-naphthyridine-3-carboxamide]",252 °C

# Source: patent US8436011B2, “Pyridinopyridinone derivatives, preparation thereof and therapeutic use thereof” (Sanofi, priority 2008, dated 2013)
